Data on 14 molecules can be found in patent EP0773287A1, “Immortalised embryonic hyppocampal cells and their use” (BAYER AG, priority 1995, dated 1997).

What all share (format): cell-based, murine
Assay [1] has as its system HC e/n XVB cells. Nature of the assay: Whole-cell patch-clamp recording of ligand-activated currents. The settings on record: for ligand-activated currents (electrophysiological recordings): membrane potential clamped to -70mV; for ligand-induced inward currents (result in words): differentiated HC e/n XVB cells, AMPA 100µM, NMDA 1mM, kainate 1mM, glutamate 1mM. As to the method: (§1) Electrophysiological setup: Membrane currents were measured with the patchclamp technique in the whole-cell recording configuration (Hamill et al. 1981, Pfluegers Arch. 391:85-100). Current signals were amplified with conventional electronics (EPC-9 amplifier, HEKA Elektronik GmbH, Lambrecht, Germany), filtered at 10kHz, and sampled at 5 kHz by an interface connected to an IBM AT-compatible computer system, which also served as a stimulus generator.
(§2) Solutions and electrodes: The standard bathing solution contained (in mM): Nacl 150, KCL 5, MgCl2 1.8, HEPES 5, and glucose 10. In some experiments an equimolar amount of NaCl was replaced by 5mM BaCl2. Recording pipettes had resistances about 5MΩ (Hilgenberg, Malsfeld, Germany). The pipettes contained (in mM): KCL 140, CaCl2 0.5, EGTA 5, MgCl2 2, and HEPES 10. The pH was adjusted to 7.4. In some experiments the pipette solution was designed to minimize the contribution of voltage-activated currents. In this case, investigating the ligand-activated currents, the pipette solution contained (in mM): CsCl 140, EGTA 10, and HEPES 10.
(§3) Ligands were dissolved in the extracellular saline solution and applied via an U-tube application system. To record ligand-induced currents, the membrane potential was clamped to -70mV. For measurements of voltage-activated currents, cells were held at -70mV and every second the membrane was stepped through a 50 msec. de- or hyperpolarising test pulse to a potential between -170 and +20 mV.

Assay [2] deals with HNMMCV14.1.A. Nature of the assay: Ca2+-imaging (Fura-2) of intracellular calcium after application of agonists. The settings on record: HNMMCV14.1.A. How it is done:
(§4) Fluorescent Probe: Dynamic changes of intracellular calcium concentration were measured using the Fura-2 fluorescent probe (Roe et al. 1990, Cell Calcium 11:63-73). This fluorescent dye was chosen because of its selectivity, high quantum yield and extinction co-efficient. Fura-2 permeates the living cell as a acetoxymethylester and becomes trapped within the cell after hydrolysis by intracellular esterases. The calcium-sensitive free acid of Fura-2 is able to bind to calcium ions inside the cell. Fura-2 has an excitation maximum at 380 nm and the Fura2/calcium complex peaks at 340 nm. A change in intracellular calcium concentration was calculated by recording fluorescent video images at wavelengths of 340nm and 380nm excitation and 510nm emission and by dividing the grey values of the digitized video images of 380nm from 340nm.
(§5) Loading cells with Fura-2: A stock solution with 2mM Fura-2-acetoxymethylester in dimethylsulfoxide (DMSO) was diluted to 5-10 µM with serum free Minimal Essential Medium (MEM, Gibco) containing 1.5% bovine serum albumin and 5 mM calcium chloride. The cells were incubated in a Falcon 96 well plate for 45-60 minutes at 37°C. Subsequently the cells were washed twice in N-(2-Hydroxyethyl)piperazine-N'-(2-ethanesulfonic acid) (HEPES, 5mM) buffered Tyrode solution (HEPES buffered salt solution containing 130 mM NaCl, 5 mM KCl, 2 mM CaCl2, 1 mM MgCl2, 5mM NaHCO3, 11 mM Glucose).
(§6) Imaging procedure: 100 µl of Tyrode buffer was added to the plate wells and the cells were sequencially exposed to light at 340 nm and 380 nm under a fluorescent microscope (Nikon Diaphot). The exposition time was 100 ms. A series of video images at 3 second intervals was acquired and stored as digitised pictures in the image boards of an image analysis computer (Leica, Quantimet 570). After the acquisition of 8 images the test substances were applied. The grey levels of the cells, which correspond to the fluorescence intensity, were measured in the recorded video images. The ratio was determined by dividing the measured grey levels of the "380 nm images" by the grey levels of the "340 nm images" either from averaged images or from individual cells. For averaged results, the grey levels were measured over the whole images.
(§7) The cells were loaded with Fura 2/AM between day 3 and 7 in culture. A number of agonists were tested for their ability to activate specific receptors on the cell surface which lead to a rise in intracellular calcium. The rise in calcium concentration in the cytoplasm can occur after activation of specific calcium channels in the cell membrane, after activation of neurotransmitter receptors directly coupled to ion channels that are permeable to calcium ions (i.e. NMDA or AMPA type glutamate receptors), or by activation of receptors, which propagate the signal through the activation of specific G-proteins, which regulate the activity of different enzymes in the interior of the cell (Connor, Cell Calcium 14 (1993), 185-200; Crouch and Hendry, Medical Res. Rev. 13 (1993), 105-123). The activation of phospholipase C generates the second messengers diacylglycerol and inositoltriphosphate from phospholipids in the cell membrane. The binding of inositoltriphosphate to receptors localised on internal vesicles which store calcium ions leads to a transient rise in the concentration of calcium ions in the cytoplasm (Berridge, M.J. 1993, Nature 361: 315-325).
On the technique in general: A change in cytosolic calcium serves as a functional read-out for many receptors and channels.

In assay [3] the test system is HC e/n XV.B cells. Described as above. How it is done: as §4, §5, §6, §7
The subject of assay [4] is HNMMCV13.1.E. Described as above. The conditions noted are these: HNMMCV13.1.E. As to the method: as §4, §5, §6, §7
Assay [5] relates to HNMMCV11.2.0. The description is as above. The conditions noted are these: HNMMCV11.2.0. How it is done: as §4, §5, §6, §7
For assay [6], the system named is HNMMCV13.1.F. The assay is described as above. The conditions noted are these: for rise in intracellular calcium concentration (result in words): HNMMCV13.1.F, concentrations (glutamate 10µM to 10 mM; AMPA, kainic acid, serotonine, dopamine, carbachol up to 1mM; NMDA up to 500µM). As to the method: as §4, §5, §6, §7
Assay [7] concerns HNMMCV14.1.A. Nature of the assay: Whole-cell patch-clamp recording of ligand-activated currents. The settings on record: 14.1.A; membrane potential clamped to -70mV. How it is done:
as §1, §2, §3
In general terms: The patch-clamp technique gives a direct electrical read-out from membranes.

Assay [8] concerns metabotropic glutamate receptor(s) (mGluR) expressed by HNMMCV14.1A cells. Nature of the assay: Phosphoinositide hydrolysis: accumulation of 3H-inositol phosphates. The conditions noted are these: for EC50: read-out: EC50 inositolphosphate accumulation. As to the method:
Phosphoinositide hydrolysis was determined by measuring the accumulation of ^3H-inositol phosphates. The cells were plated in 48-well plates (Costar) at a density of 10000 cells per well and incubated for 4-5 days at 37°C, 7% CO2. Then the cells were labeled by incubation with 4 µCi of myo-2-^3H-inositol per ml medium (specific activity: […]: Amersham). After 24 h LiCl (10 mM final concentration) was added to the cells for 1 h. Agonists were then added at the concentrations indicated. The incubation was stopped after 1 h by replacing the medium with 200 µl ice-cold methanol. 400 µl of destilled water was added and the sample was directly applied to AG-1X8 ion exchange columns (AG-1X8 resin: BioRad). Free inositol and glycerophosphoryl-inositol were washed away with 16 ml destilled water followed by 10 ml 5 mM disodium-tetraborate, 60 mM sodium formate. Total ^3H-inositol phosphates (IP1, IP2, IP3) were eluted with 7 ml of 100 mM formic acid, 1 M ammonium formate. Radioactivity of the eluted ^3H-inositol phosphates was determined by liquid scintillation counting after addition of 13 ml liquid scintillation cocktail (Ultima Gold: Canberra Packard). Measurements were performed in triplicates for each experimental point. Untreated controls were set as 100% and the other values calculated in relation to this.
The columns were prepared as follows: 1 ml pipet tips were filled with one glass bead (Roth) per tip before adding 500 µl AG-1X8 resin. The resin was compressed with air and 270 µl seasand was applied. Until use they were stored at 4°C.

The mark [9] stands for this setting: HC e/n XV.B cells, state of differentiation not stated, up to 1mM.
Where [10] appears, read: HNMMCV14.1A cells, agonist 1 h, LiCl 10 mM.
Where [11] appears, read: differentiated HC e/n XV.B cells.

Read-outs that look alike come from different tables or passages of the source.

Consider `Cc1onc(O)c1CC(N)C(=O)O` (centres unmarked) [AMPA, ∝-amino-3-hydroxy-5-methyl-4-isoxazol-propionic acid], for which the “ligand-activated currents (electrophysiological recordings)” value in assay [1] (XV. B/ - EGF) is “+ (+: 10-30% positive cells)”. Besides, in assay [1], the “ligand-induced inward currents (result in words)” value was “evoked responses”. The “rise in intracellular calcium concentration (result in words)” value in assay [2], in assay [3] (undifferentiated HC e/n XV.B cells), in assay [4], in assay [5] and in assay [6] was “did not result in a transient rise” each time.

`CC(=O)OCC[N+](C)(C)C` [Acetylcholine, acetylcholine]: the “ligand-activated currents (electrophysiological recordings)” value in assay [1] (XV. B/ - EGF) is recorded as “-”; in assay [7] it was “+ (+: 10-30% positive cells)”.

As to `N#Cc1cc2[nH]c(=O)c(=O)[nH]c2cc1[N+](=O)[O-]` [CNQX, 6-nitro-7-cyanochinoxalin-2,3-dione], the “antagonism of the calcium signals recorded after application of glutamate” value in assay [6] (glutamate 100µM, CNQX 100µM, cells not given, Table 5 gives 13.1.F) was “not antagonised”.

Regarding `C[N+](C)(C)CCOC(N)=O` [Carbachol], in assay [3] (setting [9]), the “rise in intracellular calcium concentration (result in words)” value is “reproducible signal”.

On to `NCCc1ccc(O)c(O)c1` [Dopamine, dopamine], for which the “rise in intracellular calcium concentration (result in words)” value in assay [2], in assay [3] (setting [9]), in assay [4], in assay [5] and in assay [6] was “did not lead to a specific signal” throughout.

As for `NCCCC(=O)O` [GABA], the “ligand-activated currents (electrophysiological recordings)” value in assay [1] (XV. B/ - EGF) is on record as “+++ (+++: 70-100% positive cells)”; in assay [1] (XV. B), “+ (+: 10-30% positive cells)”; in assay [7] it was “++ (++: 30-70% positive cells)”. In addition, the “ligand-induced inward currents (result in words)” value in assay [1] is recorded as “prominent resonses”.

`CN[C@H](CC(=O)O)C(=O)O` [NMDA, N-methyl-D-aspartate]: the “ligand-activated currents (electrophysiological recordings)” value in assay [1] (XV. B/ - EGF) was “++ (++: 30-70% positive cells)”.

For orientation: EC50 means the concentration at which the effect is half-maximal. Consider `N[C@@H](Cn1oc(=O)[nH]c1=O)C(=O)O` [Quisqualate, quisqualate], for which, in assay [8] (HNMMCV14.1A cells), the “effect on inositolphosphate accumulation (result in words)” value (“effect on inositolphosphate accumulation” below) is reported as “concentration dependent increase” and the “maximum response of inositolphosphate accumulation compared with glutamate” value (“maximum response … compared with glutamate” below) is “slightly weaker”. Also, the EC50 in assay [8] (setting [10]) came to 0.02 µM.

Consider `NCCc1c[nH]c2ccc(O)cc12` [Serotonine], for which the “rise in intracellular calcium concentration (result in words)” value in assay [2], in assay [3] (setting [9]), in assay [4], in assay [5] and in assay [6] was “did not lead to a specific signal” each time.

As for `CN1CCc2cc3c(cc2[C@H]1[C@@H]1OC(=O)c2c1ccc1c2OCO1)OCO3` [bicuculline], the “effect on the GABA-response” value in assay [1] was “blocked”.

For `NC(C(=O)O)c1cc(O)no1` (centres unmarked) [ibotenate], in assay [8], the “effect on inositolphosphate accumulation” value is listed as “concentration dependent increase”, the “maximum response … compared with glutamate” value was “slightly weaker” and the EC50 was determined as 5 µM.

As to `NCc1cc(=O)[nH]o1` [muscimol], the “effect on the GABA-response” value in assay [1] (HC e/n XVB cells) is “mimicked”.

As for `N[C@@]1(C(=O)O)CC[C@@H](C(=O)O)C1` [t-ACPD, 1S3R-aminocyclopentane-1,3-dicarboxylate], the “effect on inositolphosphate accumulation” value in assay [8] (HNMMCV14.1A cells) is reported as “concentration dependent increase”. For the same molecule, the “maximum response … compared with glutamate” value in assay [8] (HNMMCV14.1A cells) is “slightly weaker”. In addition, in assay [8] (setting [10]), the EC50 was 20 µM. For the same molecule, the “rise in intracellular calcium concentration (result in words)” value was “strong” in assay [2]; “weak signals” in assay [3] (setting [11]); “strong” in assay [4]; “strong” in assay [5]; “strong” in assay [6].

L-carboxycyclopropylglycin [L-CCG 1]: the “rise in intracellular calcium concentration (result in words)” value is listed as “strong” in assay [2]; “weak signals” in assay [3] (setting [11]); “strong” in assay [4]; “strong” in assay [5]; “strong” in assay [6].
